A short description of series [1]: In vitro intestinal digestion of carrier oil in fasted media (pH 6.5): solubilisation of CBD. The note with it: with TPM. In kind it is in vitro ADME. As to the method:
FIG. 1—Solubilisation of CBD during in vitro intestinal digestion of carrier oil (MCT, LCT/LCFA, or a mixture of MCT:LCT/LCFA) in fasted media (pH 6.5). Total lipid was 110 mg (100 mg carrier oil+10 mg CBD). Data are mean±SD, n=3. A. CBD concentration (mg) during digestion in MCT. B. CBD concentration (mg) during digestion in LCT/LCFA (Maisine CC). C. CBD concentration (mg) during digestion in a mixture of MCT:LCT/LCFA (Maisine CC)
FIG. 2—Solubilisation of CBD in the presence of TPM during in vitro gastro-intestinal digestion of carrier oil (MCT, LCT/LCFA, or a mixture of MCT:LCT/LCFA) in fasted media. Total lipid was 110 mg (80-90 mg carrier oil+10 mg CBD+10-20 mg TPM). Data are mean±SD, n=3. A. CBD concentration (mg) during digestion in MCT with TPM. B. CBD concentration (mg) during digestion in LCT/LCFA (Maisine CC) with TPM. C. CBD concentration (mg) during digestion in a mixture of MCT:LCT/LCFA (Maisine CC) with TPM.
FIG. 3—Solubilisation of CBD in the presence of TPM during in vitro digestion of carrier oil (MCT, LCT/LCFA, or a mixture of MCT:LCT/LCFA) in fasted media (pH 6.5). Total lipid was 110 mg (80-90 mg carrier oil+10 mg CBD+10-20 mg TPM). Data are mean±SD, n=3. A. CBD concentration (mg) during digestion in 3:1 MCT:LCT/LCFA, with TPM. B. CBD concentration (mg) during digestion in 1:1 MCT:LCT/LCFA, with TPM. C. CBD concentration (mg) during digestion in 1:3 MCT:LCT/LCFA, with TPM.
In vitro digestion experiments were carried out to determine whether TPM in various carrier oils could increase the intestinal aqueous solubility of CBD. These experiments utilised a model of digestion in an intestinal environment at a pH of about 6.5. From the model, one can make determinations regarding the likely solubility of CBD or other cannabinoids such as THC in an aqueous intestinal fluid.

The nature of series [2]: In-vitro rat lipolysis: simulated rat gastric (0-30 min) and intestinal (30-90 min) digestion. Type of series: in vitro ADME. On the procedure:
FIG. 4. CBD solubility in-vitro in simulated gastric (0-30 min) and intestinal (30-90 min) conditions. Group 1: MCT. Group 2: 50 mg/ml TPM in MCT. Group 3: 100 mg/ml TPM in MCT. Group 4: 100 mg/ml TPM in 1:1 MCT/Maisine CC. Group 5: 200 mg/ml TPM in 1:1 MCT/Maisine CC.
Further in-vitro lipolysis experiments were conducted to investigate CBD dispersibility and solubility in a model of the gastric and intestinal spaces. The effect of TPM and the formulation vehicle was assessed by comparison to CBD dissolved in an MCT vehicle at 100 mg/ml. A rat gastric-intestinal model was selected in order to have best correlation with a subsequent in-vivo pk study in rats.
The in vitro lipolysis experiment simulated rat gastrointestinal conditions. The dispersion study was done in a lipolysis vessel containing simulated rat gastric medium at pH 2.4 and the gastric digestion of the formulations was assessed during 30 min. Afterwards, a concentrated bile buffer together with pancreatin was added to the gastric medium leading to the final concentrations which simulated the rat intestinal conditions. Subsequently, lipid digestion and drug solubilization was evaluated for 60 min.

A short description of series [3]: In vivo bioavailability (pk study) after a single oral gavage. Also noted: species or system Sprague-Dawley rats. The note with it: rats. On the procedure: Male Sprague-Dawley rats (301-353 g at the time of the study) are acclimatized for a minimum of seven days on standard feed with free access to water. The rats are housed under controlled environmental parameters (temperature: 22.1° C., relative humidity: 57%), and with reversed light cycle (12 h/12 h).
The formulations are administered to each rat by oral gavage with a polyurethane feeding tube (Instech Laboratories Inc., Plymouth Meeting, USA). Blood samples (200 μL) are collected from the tail vein before dosing and at 0, 0.5, 1, 2, 4, 6, and 8 h after dosing. After the 6 h blood sample, the rats were given access to standard feed. At 23 h, the rats are euthanized by gassing and a blood sample is withdrawn from the heart immediately after. All blood samples were collected in ethylenediaminetetraacetic acid (EDTA) tripotassium salt dihydrate coated tubes (Sarstedt, Helsingborg, Sweden), and centrifuged at 10,000 RPM for 10 min. After centrifugation, the plasma was transferred to polypropylene microtubes and stored at −20° C. until LC-MS analysis.

Regarding `C=C(C)[C@@H]1CCC(C)=C[C@H]1c1c(O)cc(CCCCC)cc1O` [CBD, cannabidiol], the “aqueous CBD solubility during digestion, by MCT:LCT/LCFA ratio” value in series [1] (vehicle 1:1 MCT:LCT/LCFA) is recorded as “best increase”; in series [1] (vehicle 1:3 MCT:LCT/LCFA, also significant CBD in immiscible oil phase), “slight increase”; in series [1] (vehicle 3:1 MCT:LCT/LCFA), “CBD precipitation”. Also, the “dispersibility and solubility of CBD in simulated gastric and intestinal spaces” value in series [2] (addition of TPM to MCT containing CBD (100 mg/ml)) was “increased”. In series [2] (addition of TPM to MCT:LCT/LCFA vehicles containing CBD (100 mg/ml)), the “dispersibility and solubility of CBD in the intestinal space” value is reported as “increased”. In addition, the “increase of mean Cmax relative to control CBD formulation in MCT alone” value in series [3] (addition of 50 mg/ml TPM to MCT carrier) is about 5 ×; in series [3] (addition of 100 mg/ml TPM to MCT carrier), about 14 times; in series [3] (addition of 100 mg/ml TPM to MCT:LCT/LCFA carrier) it was about 30 ×; in series [3] (addition of 200 mg/ml TPM to MCT:LCT/LCFA carrier), about 40 times.

The values above are taken from US12539307B2, “Oral cannabinoid formulation comprising tocopheryl phosphates and long chain triglycerides or long chain fatty acids” (AVECHO BIOTECHNOLOGY LIMITED, priority 2020, dated 2026).
